Reference: patent publication US11332470B2, “CXCR4 inhibitors and uses thereof” (X4 Pharmaceuticals, Inc., priority 2016, dated 2022)
Like-named read-outs stand apart in the source and are kept apart here.

What was measured:
CXCR4 (U87.CXCR4 cells) = biological target: T1, CXCR4 (U87.CXCR4 cells) (Homo sapiens, UniProt P61073); experiment: Intracellular CXCL-12-induced calcium mobilization assay (FLIPR); type: cell-based; settings: CXCL-12 25-50 ng/mL, read-out: IC50 CXCL-12 Ca2+ flux U87.CXCR4+
T1 construct: expressed in transfected cells; host or cells: U87 (U87.CXCR4)
T1 sequence (P61073 whole entry): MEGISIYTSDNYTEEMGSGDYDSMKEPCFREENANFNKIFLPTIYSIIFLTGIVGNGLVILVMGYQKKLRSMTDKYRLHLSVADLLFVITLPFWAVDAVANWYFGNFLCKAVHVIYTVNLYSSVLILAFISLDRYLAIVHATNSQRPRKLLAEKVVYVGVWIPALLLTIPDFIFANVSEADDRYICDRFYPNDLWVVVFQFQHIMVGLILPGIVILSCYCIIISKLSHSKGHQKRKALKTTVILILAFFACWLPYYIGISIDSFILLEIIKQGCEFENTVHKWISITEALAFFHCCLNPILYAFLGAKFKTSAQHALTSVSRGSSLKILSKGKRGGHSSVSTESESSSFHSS
Summary of the method: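 U87.CXCR4 cells were loaded with 4 μM Fluo-2 AM for 45 min at 37 °C in HBSS/20 mM HEPES/0.2% BSA, pH 7.4. Calcium flux induced by CXCL-12 (25-50 ng/mL) was monitored kinetically by FLIPR fluorescence at 37 °C.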

[1] = biological target: T2, CXCR4 (Jurkat cells expressing CXCR4) (Homo sapiens, UniProt P61073); experiment: Chemokine (CXCL12-AF647) binding inhibition assay; settings: CXCL12-AF647 25 ng/mL, read-out: IC50 CXCL-12 binding Jurkat
T2 construct: Jurkat cells expressing CXCR4; endogenous in cells; host or cells: Jurkat
T2 sequence (P61073 whole entry): as above
Summary of the method: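 Cells in HBSS, 20 mM HEPES, 0.2% BSA, pH 7.4, preincubated 15 min at room temperature with compound, then 25 ng/mL CXCL12-AF647 for 30 min. After washing and paraformaldehyde fixation, bound ligand read by flow cytometry; percent inhibition calculated from MFI relative to unlabeled and ligand-only controls.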

in vitro = settings: human, Caco-2, pH 7.4
Summary of the method: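 Compound at 10 μM in HBSS pH 7.4 dosed A-to-B and B-to-A across Caco-2 monolayers, 90 min at 37 °C, duplicates. Monolayer integrity by TEER and lucifer yellow (5 μM, fluorescence 485/535 nm); compound quantified by LC-MS/MS.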

[2] = Mouse brain uptake assay (pharmacokinetics and brain penetration after IV administration); type: in vivo, Male CD1 Mice; settings: male, 3 mg/kg IV, 3 time points; for Kp: CD1, brain and plasma, read-out: Kp (brain/plasma drug concentration ratio, AUC last(b)/AUC last(p)); for Kp / clearance / half-life: mouse, 0-1 h; for clearance / half-life: CD1, plasma; for clearance: read-out: Cl (Clearance) (converted); for half-life: read-out: t½ (half life) (converted); for AUC(0-t): CD1, time zero to 1 hr
Description: Example 15: Pharmacokinetics and Brain Penetration Experiment to Determine Brain and Plasma Concentrations of Compounds after IV Administration to Male CD1 Mice or Male SD Rats
The study design (9 animals) consisted of administrating the drug (IV: 3 mg/kg (5 mL/kg) via tail vein injection) and collecting samples at terminal bleeding for plasma and brain at 0.083, 0.5 and 1 h. The blood collection was performed as follows: the animal was restrained manually and approximately 150 μL blood/time point was collected into a dipotassium EDTA tube via retro orbital puncture under anesthesia with isoflurane. The blood sample was put on ice and centrifuged to obtain a plasma sample (2000 g, 5 min under 4° C.) within 15 minutes. The brain collection was performed as follows: a mid-line incision was made in the animal's scalp and the skin was retracted. Using small bone cutters and rongeurs, the skull overlying the brain was removed. The brain was removed using a spatula and the brain rinsed with cold saline. The brain was placed in screw-top tubes, and the tubes were stored at −70° C. until analysis. The IV dosing solution was prepared in 50 mM citrate buffer (pH 4.0) at 0.6 mg/mL.
Plasma Sample Preparation:
An aliquot of 30 μL sample was added to […] containing 50 ng/mL IS (Dexamethasone). The mixture was vortexed for 5 min and centrifuged at 14,000 rpm for 5 min. An aliquot of 5 μL supernatant was injected for LC-MS/MS analysis.
Brain Sample Preparation:
An aliquot of 30 μL brain homogenate (brain:PBS=1:3, w/v) sample was added to 150 μL IS in MeCN (Dexamethasone, 50 ng/mL). The mixture was vortexed for 5 min and centrifuged at 14,000 rpm for 5 min. An aliquot of 5 μL supernatant was injected for LC-MS/MS analysis.
The sample analysis was performed on LCMS/MS-003 (API4000, triple quadruple) under the following conditions: positive ion, ESI, MRM detection using dexamethasone as internal standard. HPLC conditions: mobile phase A: H2O (0.025% formic acid (FA) with 1 mM NH4OAc); mobile phase B: MeOH (0.025% FA with 1 mM NH4OAc) on Waters X-Bridge C18 (2.1×50 mm, 2.5 μm) column at 60° C.
A similar experiment was performed with 4 time points taken from 0-24 h.

[3] = mouse brain, read-out: AUClast (b) (area under the brain drug concentration-time curve)
[4] = mouse plasma, read-out: AUClast (p) (area under the plasma drug concentration-time curve)

Row | Structure (SMILES) | IC50 (CXCR4 (U87.CXCR4 cells)) [nM] | IC50 [1] [nM] | Papp A→B at 90 min, 10 μM (in vitro) [×10⁻⁶ cm/s] | Papp B→A at 90 min, 10 μM (in vitro) [×10⁻⁶ cm/s] | efflux ratio at 90 min, 10 μM (in vitro) | Kp [2] | clearance [2] [mL/min/kg] | half-life [2] [h] | AUC(0-t) [2, 3] [ng·h/mL] | AUC(0-t) [2, 4] [ng·h/mL]
1 | Cc1cccnc1C1CCCN1Cc1nc2ccccc2n1C1CCN(C)CC1 (stereo not drawn) [Compound I-33] | 100 to 1000 | 0.01 to 100 | 10 to 30 | 10 to 30 | 0.1 to 10 | 6.6 | 27.5 | 4.93 | 1660 | 252
2 | CN1CCN(c2c(CN3CCCC3c3ccccn3)nc3ccccn23)CC12CC2 (stereo not drawn) [Compound I-58] | 0.01 to 100 | 0.01 to 100 | 10 to 30 | 10 to 30 | 0.1 to 10 | 3.13 | 38.7 | 3.43 | 1230 | 393
3 | CN1CCN(C(=O)c2c(CN3CCCC3c3ccccn3)nc3ccccn23)CC1 (stereo not drawn) [Compound I-123] | ≥ 1000 | 100 to 1000 | 0.1 to 10 | 10 to 30 | 0.1 to 10 |  |  |  |  | 

The remaining lines, values ahead:

Row | IC50 (CXCR4 (U87.CXCR4 cells)) [nM] | IC50 [1] [nM] | Papp A→B at 90 min, 10 μM (in vitro) [×10⁻⁶ cm/s] | Papp B→A at 90 min, 10 μM (in vitro) [×10⁻⁶ cm/s] | efflux ratio at 90 min, 10 μM (in vitro) | Kp [2] | clearance [2] [mL/min/kg] | half-life [2] [h] | AUC(0-t) [2, 3] [ng·h/mL] | AUC(0-t) [2, 4] [ng·h/mL] | Structure (SMILES)
4 | 0.01 to 100 | 0.01 to 100 | 10 to 30 | 10 to 30 | 0.1 to 10 | 5.51 | 41.8 | 3.99 | 833 | 151 | Cc1cccnc1CN1CCCC1c1nc2cccc(N3CCN(C)CC3)c2[nH]1 (stereo not drawn) [Compound I-45]
5 | 0.01 to 100 | 0.01 to 100 | 0.1 to 10 | 10 to 30 | 0.1 to 10 | 1.05 | 58.3 | 3.71 | 240 | 227 | CN1CCN(c2c(CN3CCCC3c3ncccc3Cl)nc3ccccn23)CC1 (stereo not drawn) [Compound I-59]
